Measurements taken from US10117946B2, “Self-assembling ultrashort peptides modified with bioactive agents by click chemistry” (Agency for Science, Technology and Research, priority 2012, dated 2018).
“And” between values parts separate entries of the source, which are not always exact repeats. Equal entries are not always repeated.

What was measured:
[1] = test system: HeLa (cervical carcinoma) cells; experiment: Cytotoxicity, colorimetric microculture assay (MTS assay); assay type: cell-based, human; settings: 96 h exposure
Description: (§1) Cytotoxicity of all synthesized compounds was evaluated on two human derived cancer cell lines namely HeLa (cervical carcinoma) and SW480 (colon carcinoma). 4T1 mouse breast cancer cells were also used for evaluation. Cells were first treated with different concentrations of the test compounds and incubated for 96 h at 37° C. Subsequently, the cell viability was measured by means of a colorimetric microculture assay (MTS assay).
(§2) Human cervical carcinoma cell line HeLa, human colon carcinoma cell line SW480 and mouse breast cancer cell line 4T1 were purchased from the American Type Culture Collection (Manassas, Va., USA). The cell lines were cultured in DME medium (Biopolis shared facilities, A*STAR, SG) supplemented with 10% heat inactivated fetal bovine serum and 1% of mixture of penicillin and streptomycin (Invitrogen, CA, U.S.A). The cells were maintained in a 75 mL cell culture flask (Nunc) at 37° C. in a humidified incubator with 95% air and 5% CO2.
(§3) Cytotoxicity was determined by means of a colorimetric microculture assay (MTs assay, MTS=[…]) For this purpose, HeLa, SW480, and 4T1 cells were harvested from culture flasks by trypsinization and seeded into 96-well microculture plates in cell densities of 3.5×10^3 cells/well. The cells were allowed to attach for 8 h. Subsequently, cells were exposed to serial dilutions of the test compounds in 150 μL/well complete culture medium for 96 h. Then 25 uL of CellTiter 96® Aqueous one solution reagent was added to the cells, followed by incubation for 2 h at 37° C. After incubation, the absorbance was measured at a wavelength of 499 nm using a microplate reader. The quantity of vital cells was expressed in terms of T/C values in comparison to untreated control microcultures, and 50% inhibitory concentrations (IC50) were calculated from concentration-effect curves by a nonlinear curve fit using Origin Lab 7.5.

[2] = test system: SW480 (colon carcinoma) cells; experiment: as above; assay type: cell-based, human; settings: 96 h exposure
Description: as §1, §2, §3

[3] = test system: 4T1 mouse breast cancer cells; experiment: as above; assay type: cell-based; settings: 96 h exposure
Description: as §1, §2
Cytotoxicity was determined by means of a colorimetric microculture assay (MTs assay, MTS=[…]) For this purpose, HeLa, SW480, and 4T1 cells were harvested from culture flasks by trypsinization and seeded into 96-well microculture plates in cell densities of 3.5×10^3 cells/well. […] After incubation, the absorbance was measured at a wavelength of 499 nm using a microplate reader. […]

4T1 cells = experiment: Cell cycle analysis (propidium iodide, flow cytometry); assay type: cell-based, mouse; settings: 10 μM, 96 h
Description: (§4) To further characterize the in vitro efficacy of 3-6, cell cycle analysis and measurement of caspase activity was conducted after incubation with the drug candidates. […] Oxaliplatin coordinates to DNA nucleotides, preventing the cell from crossing the DNA damage check point. […] This is very close to the oxaliplatin control were about 55% of the cells were in a G2/M arrest. […] The fact that all compounds were associated with an increase in the G2/M phase proves that compound 3-6 is able to bind to DNA in the tested cells, although the effect is not as pronounced as in the oxaliplatin control.
(§5) Cells (3×10^6 cells) were seeded into 10 cm petridishes and allowed to recover for 24 h. The medium was exchanged to serum free DME medium and the cells were allowed to synchronize for 24 h. The medium was later changed to DME medium containing 10% heat inactivated fetal bovine serum and 1% of mixture of penicillin and streptomycin (Invitrogen, CA, U.S.A). Cells were exposed to 10 μM of the test compounds for 96 h. Control and treated cells were collected, washed with PBS, fixed in 70% ice-cold ethanol, and stored at −20° C. To determine cell cycle distributions, cells were transferred to a PBS solution, incubated with 10 μg/mL RNase A for 30 min at 37° C., and treated with 5 μg/mL propidium iodide for 30 min. Fluorescence of individual cells was measured by flow cytometry, […]

SW480 cells = experiment: as above; assay type: cell-based, human; settings: 10 μM, 96 h
Description: as §4, §5

[4] = test system: 4T1 breast cancer tumor in BALB/c mice; experiment: In vivo therapeutic efficacy, intratumoral injection, tumor volume; parameters: species or system mouse; settings: for Tumor volume, Significant? vs. PBS, Day 14: Holm-Sidak, overall significance level 0.05, comparator PBS group
Description: (§6) Female BALB/c mice were divided into four groups for treatment (PBS group and Ac-LIVAGK-NH2 (SEQ ID NO. 16 acylated and amidated) hydrogel group as negative controls, oxaliplatin as positive control and test compound 3 as a hybrid hydrogel with Ac-LIVAGK-NH2 (SEQ ID NO. 16 acylated and amidated)). Each group comprised of 9 mice. Tumour growth was initiated via a subcutaneous injection of 1 million 4T1 cells into the mouse flank. Seven days after cell injection, compound 3 was directly injected into the tumor using Ac-LIVAGK-NH2 (SEQ ID NO. 16 acylated and amidated), its parent peptide, as gel matrix. The same volume was accordingly injected into the other three groups. As a first dose 15 mg/kg oxaliplatin was used, which is equivalent to 44 mg/kg of compound 3. A re-injection was performed on day 21 of the experiment. The animals were sacrificed on day 28 and final tumor size was measured.
(§7) Adult female Balb/c mice used in this study (weight 20 g; aged 6-8 weeks) were provided by Biological Resource Center (BRC), A*Star, Biopolis, Singapore. For tumor establishment, 1×10^6 mouse 4T1 breast cancer cells were injected subcutaneously into the flank of Balb/c mice (designated as day 0). To investigate the effect of the mixture of Oxaliplatin and hydrogel, the tumor-inoculated animals were divided into 4 groups (n=9 per group) on day 7 post-tumor inoculation and received an intratumor injection of sample solutions: phosphate buffered saline (PBS), Ac-LIVAGK-NH2 (SEQ ID NO. 16 acylated and amidated) (12.5 mg/mL) oxaliplatin (15 mg/kg), 3 (44 mg/kg) and Ac-LIVAGK-NH2 (SEQ ID NO. 16 acylated and amidated) (12.5 mg/mL). 100 μL of each sample were injected directly into the tumor. The hydrogels were prepared prior to injection by dissolving the peptide in 1×PBS and vortexing for 1 min. The sample containing 3 was prepared in a similar manner; 3 was dissolved in 1×PBS and the resulting solution was added to the peptide and vortexed for 1 min. A solid hydrogel was observed about 10 min after sample preparation, to allow in situ gelation inside the tumor.
Tumor volume was determined by measurement with an electronic digital vernier caliper. Readings were taken once a week until day 28 post-tumor inoculation. The ellipsoid volume of the tumor (mm^3) was then calculated using the formula: Volume=(Width)×(Length)×(height)×π/6.
(§8) Data are represented as mean±SE. […] A P-value of <0.05 was considered to be statistically significant.

[5] = In vivo study, body weight comparison of treatment groups; parameters: species or system mouse
Description: as §6
The same holds true for day 21 of the experiment. […] This was confirmed by a significant weight difference between the oxaliplatin group and the group treated with compound 3. Therefore, reinjection on day 21 involved only half the initial dose.
as §7, §8

[6] = Gelation ability in water (vortexing, left to stand overnight); assay type: physicochemical
Description: To test the gelation ability of compounds 3-8, they were dissolved in water by vortexing and left to stand overnight. […] In contrast, the alkyne-derived peptide P1 gelled in water at a concentration of 30 mg/mL, which is close to the minimal gelation concentration of its parent peptide SEQ ID NO 16 Ac-LIVAGK-NH2 (Ac-LK6-NH2). […] We assume, that the derivatization of the peptides with cisplatin or oxaliplatin and a bulky triazole group interferes with their self-assembly by changing the lipophilicity of the N-terminus of the peptide. However, stable hybrid gels could be formed with up to 40 wt % loading when the parent peptide was used as a matrix.

[7] = Holm-Sidak pairwise comparison, comparator Ac-LK6-NH2 hydrogel group
[8] = Holm-Sidak pairwise comparison, comparator PBS group
[9] = Holm-Sidak, 0.05, comparator Ac-LK6-NH2 hydrogel group
[10] = Holm-Sidak, 0.05, comparator PBS group
[11] = comparator Ac-LK6-NH2 hydrogel group

With `N.N.[Cl][Pt][Cl]` [cisplatin] the IC50 [1] was 620 nM and 1000 nM, the IC50 [2] was 4000 ± 2500 nM and the IC50 [3] was 1500 ± 600 nM.
With `O=C1[O][Pt]2([NH][C@@H]3CCCC[C@H]3[NH]2)[O]C1=O` [oxaliplatin] the IC50 [1] was 2000 ± 800 nM, the IC50 [2] was 500 nM and 470 nM and the IC50 [3] was 1800 ± 500 nM. The apoptotic cells (4T1 cells) was “about 30%”, the “cells arrested in G2/M” value (4T1 cells) was “about 55%” and the apoptotic cells (SW480 cells) was “no apoptotic cells”. For the same compound, the “cells arrested in G2/M” value (SW480 cells) was “about 80%”, the “Tumor volume, Diff of Means vs. Ac-LK6-NH2, Day 14” value [4, 7] was 101.218 mm^3 and the “Tumor volume, Diff of Means vs. Ac-LK6-NH2, Day 28” value [4, 7] was 1150.053 mm^3. The “Tumor volume, Diff of Means vs. LK6, Day 21” value ([4]; Holm-Sidak pairwise comparison, comparator LK6 hydrogel group) was 487.488 mm^3, the “Tumor volume, Diff of Means vs. PBS, Day 14” value [4, 8] was 253.590 mm^3 and the “Tumor volume, Diff of Means vs. PBS, Day 21” value [4, 8] was 580.470 mm^3. For the same compound, the “Tumor volume, Diff of Means vs. PBS, Day 28” value [4, 8] was 855.616 mm^3, the “Tumor volume, Significant? vs. Ac-LK6-NH2, Day 14” value [4, 9] was “No” and the “Tumor volume, Significant? vs. Ac-LK6-NH2, Day 28” value [4, 9] was “Yes”. For the same compound, the “Tumor volume, Significant? vs. LK6, Day 21” value ([4]; Holm-Sidak, 0.05, comparator LK6 hydrogel group) was “Yes”, the “Tumor volume, Significant? vs. PBS, Day 21” value [4, 10] was “Yes” and the “Tumor volume, Significant? vs. PBS, Day 28” value [4, 10] was “Yes”. The “Tumor volume, Significant? vs. PBS, Day 14” value [4] was “Significant tumor reduction”, the “Tumor volume, Significant? vs. PBS, Day 14” value ([4]; listed as Oxaliplatin) was “Yes” and the “Tumor volume, Mean, Day 7” value ([4]; day 7 post-tumor inoculation = day of first intratumoral injection (baseline), n=9) was 61.938 mm^3. For the same compound, the “Tumor volume, Mean, Day 14” value ([4]; day 14, intratumoral injection day 7: oxaliplatin 15 mg/kg or 3 44 mg/kg in Ac-LIVAGK-NH2 gel, n=9) was 135.101 mm^3, the “Tumor volume, Mean, Day 21” value ([4]; day 21, intratumoral injection day 7: oxaliplatin 15 mg/kg or 3 44 mg/kg in Ac-LIVAGK-NH2 gel, n=9) was 96.493 mm^3 and the “Tumor volume, Mean, Day 28” value ([4]; day 28, injection day 7, re-injection day 21 with half the initial dose, n=9) was 250.650 mm^3. The “Weight, Significant? vs. Ac-LK6-NH2, Day 20” value [5, 9] was “Yes”, the “Weight, Significant? vs. Ac-LK6-NH2, Day 28” value [5, 9] was “Yes” and the “Weight, Significant? vs. PBS, Day 20” value [5, 10] was “Yes”. The “Weight, Significant? vs. PBS, Day 28” value [5, 10] was “Yes”, the “Weight, Mean, Day 20” value ([5]; body weight of BALB/c mice, day 20, injection day 7, n=9) was 19.754 and the “Weight, Mean, Day 28” value ([5]; body weight of BALB/c mice, day 28, re-injection day 21 with half dose, n=9) was 20.593. For the same compound, the “Weight, Diff of Means vs. Ac-LK6-NH2, Day 20” value [5, 11] was 2.831, the “Weight, Diff of Means vs. Ac-LK6-NH2, Day 28” value [5, 11] was 1.982 and the “Weight, Diff of Means vs. PBS, Day 20” value ([5]; comparator PBS group) was 2.813. The “Weight, Diff of Means vs. PBS, Day 28” value ([5]; comparator PBS group) was 1.742 and the “effect on the mice at the administered dose, compared to conjugate 3” value ([5]; oxaliplatin 15 mg/kg intratumoral, confirmed by significant weight difference) was “significant deleterious effect”.
With “P1: alkyne-derived (propiolic acid functionalized) peptide; parent peptide Ac-LIVAGK-NH2 (also: propiolic acid alkyne functionalization, site not given here) [Compound P1]” the “concentration at which the peptide gelled in water” value [6] was 30000 µg/mL.
